The structures appear in SMILES notation.

The target in one experiment is T1, active p38 alpha enzyme (Upstate Biotechnology) (Homo sapiens, UniProt Q16539).
T1 construct: purchased Upstate Biotechnology
T1 sequence (Q16539 whole entry): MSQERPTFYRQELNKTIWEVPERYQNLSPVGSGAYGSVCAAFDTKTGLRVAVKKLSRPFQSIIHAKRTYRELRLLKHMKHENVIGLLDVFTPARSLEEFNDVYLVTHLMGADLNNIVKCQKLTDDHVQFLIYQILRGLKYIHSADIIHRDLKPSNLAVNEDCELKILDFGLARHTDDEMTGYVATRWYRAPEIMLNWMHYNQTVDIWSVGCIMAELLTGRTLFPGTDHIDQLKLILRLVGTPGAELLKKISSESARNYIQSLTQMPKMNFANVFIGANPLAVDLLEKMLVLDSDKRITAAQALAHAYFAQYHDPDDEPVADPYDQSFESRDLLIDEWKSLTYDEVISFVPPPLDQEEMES
As to the kind of experiment: p38α biochemical assay (ATP turnover, luminescent detection, Cambrex PKlight). Conditions: p38α biochemical assay, Table 1 Biological Activity. In a few lines: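 Luminescent ATP-depletion readout measures total ATP turnover by p38α phosphorylating whole MapkapK2 protein. ATP 1.4 uM final; 30C, 2 h. Compounds delivered from DMSO.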
As usually defined, the IC50 is the midpoint of a concentration-inhibition curve. Lower therefore signals greater potency in that assay. Take `CC(C)NC(=O)c1csc(-c2c(-c3ccc(F)cc3)noc2CNC(=O)c2cccc(O)c2O)n1` [Example 622]: the concentration for half-maximal inhibition (IC50) was greater than 1000 nM.
On the same count and under the same terms, the value for `CC(C)NC(=O)c1csc(-c2c(-c3ccc(F)cc3)noc2CNC(=O)c2cscn2)n1` [Example 594] was greater than 1000 nM; that for `CC(C)NC(=O)c1csc(-c2oc(CNC(=O)c3c(O)ccc4ccccc34)nc2-c2ccc(F)cc2)n1` [Example 243] was greater than 1000 nM; that for `CC(C)NC(=O)c1csc(-c2c(-c3ccc(F)cc3)noc2CNC(=O)c2csc3ccccc23)n1` [Example 681] was greater than 1000 nM.
In the case of `COc1cc(C(=O)NCc2onc(-c3ccc(F)cc3)c2-c2nc(C(=O)NC(C)C)cs2)cc(Cl)n1` [Example 716], the half-inhibitory concentration (IC50) is greater than 1000 nM.
Consider `CC(C)NC(=O)c1csc(-c2oc(CNC(=O)c3ccc4cc(O)ccc4c3)nc2-c2ccc(F)cc2)n1` [Example 242], for which the IC50 is no more than 1000 nM.
Turning to `CC(=O)Oc1ccc(C(=O)N2CCN(Cc3nc(-c4ccc(F)cc4)c(-c4nc(C(=O)NC(C)C)cs4)o3)CC2)cc1` [Example 450], the half-maximal inhibitory concentration (IC50) is greater than 1000 nM.
`COC(=O)c1ccc(C(=O)NCc2nc(-c3ccc(F)cc3)c(-c3nc(C(=O)NC(C)C)cs3)o2)cc1` [Example 214] displayed an IC50 greater than 1000 nM.
`COc1cccc(O)c1C(=O)NCc1onc(-c2ccc(F)cc2)c1-c1nc(C(=O)NC(C)C)cs1` [Example 661] gave a concentration for half-maximal inhibition (IC50) greater than 1000 nM.
In the case of `CCC(C(=O)N1CCN(Cc2nc(-c3ccc(F)cc3)c(-c3nc(C(=O)NC(C)C)cs3)o2)CC1)c1ccccc1` (stereo not shown) [Example 411], the IC50 was greater than 1000 nM.
Take `CC(C)NC(=O)c1csc(-c2oc(CN3CCN(C(=O)c4ccccc4Oc4ccccc4)CC3)nc2-c2ccc(F)cc2)n1` [Example 526]: the IC50 was greater than 1000 nM.
Same read-out and setting: the value for `CC(C)NC(=O)c1coc(-c2c(-c3ccc(F)cc3)noc2C2CCNCC2)n1` [Example 37, 2-|3-(4-Fluoro-phenyl)-5-piperidin-4-yl-isoxazol-4-yl|-oxazole-4-carboxylic acid isopropylamide] was no more than 1000 nM.
The same measure, in the same setting: the value for `CC(C)NC(=O)c1csc(-c2c(-c3ccc(F)cc3)noc2CNC(C=O)c2ccc3cc(O)ccc3c2)n1` (stereo not shown) [Example 717] was greater than 1000 nM.
Still for that read-out and setting: the value for `COCCNCc1onc(-c2ccc(F)cc2)c1-c1nc(C(=O)NC(C)C)cs1` [Example 33, 2-{3-(4-Fluoro-phenyl)-5-|(2-methoxy-ethylamino)-methyl|-isoxazol-4-yl}-thiazole-4-carboxylic acid isopropylamide] was greater than 1000 nM; that for `CC(C)NC(=O)c1csc(-c2oc(CN3CCN(C(=O)C4CCCN4C(=O)OC(C)(C)C)CC3)nc2-c2ccc(F)cc2)n1` (stereo not shown) [Example 532] was no more than 1000 nM.
`CC(C)NC(=O)c1csc(-c2oc(CNC(=O)CCc3nc4ccccc4[nH]3)nc2-c2ccc(F)cc2)n1` [Example 250] registered an IC50 of no more than 1000 nM.
Same read-out and setting: the value for `Cc1cc(C(=O)NCc2onc(-c3ccc(F)cc3)c2-c2nc(C(=O)NC(C)C)cs2)cc(Cl)n1` [Example 667] was greater than 1000 nM; that for `Cc1ccc([N+](=O)[O-])c(C(=O)N2CCN(Cc3nc(-c4ccc(F)cc4)c(-c4nc(C(=O)NC(C)C)cs4)o3)CC2)c1` [Example 459] was greater than 1000 nM.
Same read-out and setting: the value for `CC(=O)NCC(=O)N1CCN(Cc2nc(-c3ccc(F)cc3)c(-c3nc(C(=O)NC(C)C)cs3)o2)CC1` [Example 347] was greater than 1000 nM.

The same experiment, now with this note: p38α kinase; Table 1 Biological Activity.
The molecule `CC(C)NC(=O)c1csc(-c2oc(CNCC(=O)c3ccccc3)nc2-c2ccc(F)cc2)n1` [Example 1163] registered an IC50 greater than 1000 nM.
Still for that read-out and setting: in the case of `CC(=O)N1CCC(c2[nH]nc(-c3ccc(F)cc3)c2-c2nc(C(=O)NC(C)C)cs2)CC1` [Example 2167, 2-|5-(1-Acetyl-piperidin-4-yl)-3-(4-fluoro-phenyl)-1H-pyrazol-4-yl|-thiazole-4-carboxylic acid isopropylamide] it was no more than 1000 nM; in that of `Cc1nc(-c2ccc(F)cc2)c(-c2nc(C(=O)NCc3ccc(C(C)(C)C)cc3)cs2)s1` [Example 1810], greater than 1000 nM; in that of `CC(C)(C)OC(=O)NCCCNC(=O)c1csc(-c2c(-c3ccc(F)cc3)n[nH]c2C2CCNCC2)n1` [Example 2142], greater than 1000 nM.
Regarding `Cc1ccc(O)c(C(=O)N2CCC(c3[nH]nc(-c4ccc(F)cc4)c3-c3nc(C(=O)NC(C)C)cs3)CC2)c1` [Example 859], the IC50 was greater than 1000 nM.
Take `COC[C@@H]1CCCN1Cc1onc(-c2ccc(F)cc2)c1-c1nc(C(=O)NC(C)C)cs1` [Example 1537]: the concentration for half-maximal inhibition (IC50) was greater than 1000 nM.
As for `CC(C)NC(=O)c1csc(-c2c(-c3ccc(F)cc3)noc2CNc2ccc(C(F)(F)F)cc2C(F)(F)F)n1` [Example 1699], the 50% inhibitory concentration (IC50) was greater than 1000 nM.
On to `CC(C)NC(=O)c1csc(-c2c(-c3ccc(F)cc3)n[nH]c2C2CCCN(C(=O)/C=C/c3ccccc3F)CC2)n1` (stereo not shown) [Example 892], for which the IC50 was greater than 1000 nM.
As to `CC(C)NC(=O)c1csc(-c2oc(CNCCN(C)C)nc2-c2ccc(F)cc2)n1` [Example 1071], the IC50 was greater than 1000 nM.
Still for that read-out and setting: in the case of `CC(C)NC(=O)c1csc(-c2c(-c3ccc(F)cc3)noc2CNCc2ccc(C(C)C)cc2)n1` [Example 1471] it was greater than 1000 nM; in that of `Cc1cc(C)cc(C(=O)N2CCC(c3[nH]nc(-c4ccc(F)cc4)c3-c3nc(C(=O)NC(C)C)cs3)CC2)c1` [Example 852], greater than 1000 nM; in that of `CC(C)NC(=O)c1csc(-c2c(-c3ccc(F)cc3)n[nH]c2C2CCN(C(=O)C3Cc4ccccc4CN3C(=O)OC(C)(C)C)CC2)n1` (stereo not shown) [Example 1047], greater than 1000 nM.
Still for that read-out and setting: in the case of `CC(C)NC(=O)c1csc(-c2c(-c3ccc(F)cc3)noc2CNCCCc2ccccc2)n1` [Example 1450] it was greater than 1000 nM; in that of `CC(C)CCNC(=O)c1csc(-c2c(-c3ccc(F)cc3)n[nH]c2C2CCNCC2)n1` [Example 2048], greater than 1000 nM.
Consider `O=C(NC1CC1)c1csc(-c2c(-c3ccc(F)cc3)n[nH]c2C2CCNCC2)n1` [Example 2033], for which the IC50 was no more than 1000 nM.
The molecule `CC(C)NC(=O)c1csc(-c2c(-c3ccc(F)cc3)n[nH]c2C2CCN(C(=O)c3ccc(F)cc3Cl)CC2)n1` [Example 913] registered a concentration for half-maximal inhibition (IC50) greater than 1000 nM.
In the case of `CC(C)NC(=O)c1csc(-c2c(-c3ccc(F)cc3)n[nH]c2C2CCN(C(=O)c3cccc(O)c3)CC2)n1` [Example 838], the IC50 is no more than 1000 nM.
Same read-out and setting: the value for `COc1ccc(NCc2nc(-c3ccc(F)cc3)c(-c3nc(C(=O)NC(C)C)cs3)o2)cc1OC` [Example 1148] was greater than 1000 nM; that for `CC(C)NC(=O)c1csc(-c2oc(CNCc3ccccn3)nc2-c2ccc(F)cc2)n1` [Example 1086] was no more than 1000 nM.
As for `CC(C)NC(=O)c1csc(-c2c(-c3ccc(F)cc3)noc2CNc2ncccc2OCc2ccccc2)n1` [Example 1696], the IC50 was greater than 1000 nM.
With `Cc1nc(-c2ccc(F)cc2)c(-c2nc(C(=O)Nc3ccc(C(F)(F)F)cc3C(F)(F)F)cs2)s1` [Example 2024], the IC50 is no more than 1000 nM.
Same read-out and setting: in the case of `CC(C)NC(=O)c1csc(-c2c(-c3ccc(F)cc3)noc2CNc2cc(C(F)(F)F)ccc2F)n1` [Example 1689] it was greater than 1000 nM.
`Cc1nc(-c2ccc(F)cc2)c(-c2nc(C(=O)N3CCN(c4cccc(C(F)(F)F)c4)CC3)cs2)s1` [Example 1948] registered an IC50 greater than 1000 nM.
`COc1ccccc1CCNC(=O)c1csc(-c2sc(C)nc2-c2ccc(F)cc2)n1` [Example 1800] came in with an IC50 of no more than 1000 nM.
Still for that read-out and setting: in the case of `CC(C)NC(=O)c1csc(-c2c(-c3ccc(F)cc3)n[nH]c2C2CCN(C(=O)c3ccc(F)c(F)c3)CC2)n1` [Example 875] it was greater than 1000 nM; in that of `CC(C)NC(=O)c1csc(-c2c(-c3ccc(F)cc3)noc2CNCc2ccccc2)n1` [Example 1415], greater than 1000 nM; in that of `Cc1nc(-c2ccc(F)cc2)c(-c2nc(C(=O)N3CCN(c4ccc(C(C)(C)C)cc4)CC3)cs2)s1` [Example 1944], greater than 1000 nM.
The same measure, in the same setting: in the case of `Cc1nc(-c2ccc(F)cc2)c(-c2nc(C(=O)N3CC(C)OC(C)C3)cs2)s1` (stereo not shown) [Example 1863] it was greater than 1000 nM; in that of `CC(C)NC(=O)c1csc(-c2oc(CNCc3ccc(Cl)cc3Cl)nc2-c2ccc(F)cc2)n1` [Example 1169], greater than 1000 nM.
Still for that read-out and setting: the value for `Cc1nc(-c2ccc(F)cc2)c(-c2nc(C(=O)N3CCN(c4ccc(Cl)c(Cl)c4)CC3)cs2)s1` [Example 1949] was greater than 1000 nM.
With `CC(C)NC(=O)c1csc(-c2c(-c3ccc(F)cc3)n[nH]c2C2CCN(C(=O)/C=C/c3ccc(Cl)cc3)CC2)n1` [Example 944], the 50% inhibitory concentration (IC50) is greater than 1000 nM.
Turning to `CC(C)NC(=O)c1csc(-c2c(-c3ccc(F)cc3)noc2CN2CCCCC2CO)n1` (stereo not shown) [Example 1539], the IC50 is greater than 1000 nM.
On the same count and under the same terms, in the case of `CC(C)NC(=O)c1csc(-c2c(-c3ccc(F)cc3)n[nH]c2C2CCN(C(=O)/C=C/c3ccccc3O)CC2)n1` [Example 880] it was greater than 1000 nM.
The same measure, in the same setting: in the case of `CC(=O)N[C@H]1CCN(Cc2nc(-c3ccc(F)cc3)c(-c3nc(C(=O)NC(C)C)cs3)o2)C1` [Example 1220] it was greater than 1000 nM.
Same read-out and setting: in the case of `CCC(C)NCc1nc(-c2ccc(F)cc2)c(-c2nc(C(=O)NC(C)C)cs2)o1` (stereo not shown) [Example 1061] it was greater than 1000 nM.
Turning to `CCCCN(CC)C(=O)c1csc(-c2sc(C)nc2-c2ccc(F)cc2)n1` [Example 1852], the 50% inhibitory concentration (IC50) was greater than 1000 nM.
The molecule `Cc1nc(-c2ccc(F)cc2)c(-c2nc(C(=O)N3CCN(c4ccccc4)CC3)cs2)s1` [Example 1892] yielded an IC50 greater than 1000 nM.
The same measure, in the same setting: the value for `COc1ccc(CNCc2nc(-c3ccc(F)cc3)c(-c3nc(C(=O)NC(C)C)cs3)o2)cc1O` [Example 1173] was no more than 1000 nM; that for `CCN(CC)CCCC(C)NC(=O)c1csc(-c2sc(C)nc2-c2ccc(F)cc2)n1` (stereo not shown) [Example 1806] was greater than 1000 nM; that for `CC(C)NC(=O)c1csc(-c2oc(CNc3ccc(N(C)C)cc3)nc2-c2ccc(F)cc2)n1` [Example 1359] was greater than 1000 nM.
`CC(C)NC(=O)c1csc(-c2c(-c3ccc(F)cc3)noc2CNCc2cccnc2)n1` [Example 1416] showed an IC50 greater than 1000 nM.
In turn, `CC(C)NC(=O)c1csc(-c2c(-c3ccc(F)cc3)noc2CNCCc2ccc(O)cc2)n1` [Example 1453] gave an IC50 greater than 1000 nM.

The record behind these values is patent US20060252807A1, “Novel ortho-terphenyl inhibitors of p38 kinase and methods of treating inflammatory disorders” (Kalypsys, Inc., priority 2005, published 2006).
